Results on 5 compounds are retold here after patent US8940863B2, “Selective anticancer chimeric peptides which bind neuropilin receptor” (Stella Pharma Corporation, priority 2008, dated 2015).

Entries after “also recorded” stand apart in the source; their conditions may differ. Where two headings read alike, the source gives them in different places. Non-standard residues stand in square brackets, D forms with d. Residues, ends and D or L forms follow the SMILES beside them.

One experiment deals with EGFR (Homo sapiens, UniProt P00533). To be noted: Li Z et al., FASEB J 2005; read-out: dissociation constant to EGFR; cited from earlier work.
In another experiment the test system is HEK293. Particulars: HEK293 normal cells; 72 hours; mean (Table 2).
The test system of experiment [1] is BT-20.
Another experiment relates to MRC-5. As to the kind of experiment: Cell viability assay (WST-8). Particulars: MRC-5 normal cells; 72 hours; mean (Table 2). In general terms: Tetrazolium assays rely on reduction of a dye to a coloured formazan, in cell work by metabolically active cells.
The subject of another experiment is H322 lung cancer cells. As to the kind of experiment: Membrane permeabilization (calcein, confocal). The class given is cell-based, human. Particulars: 10 μM; for percentage of influx of medium to the cells over time (words): compared with EB-Lytic peptide.
The test system of experiment [2] is BT-20. As to the kind of experiment: Annexin V assay and caspase assay. The format is cell-based, human. To be noted: 5 μM, two hours. As for the experimental part: BT-20 cells were treated for 2 hours at 37° C. with or without EB-lytic chimeric peptide at 5 μM. For determination of caspase activation or Annexin V-positive expression, peptide-treated cultures were simultaneously analyzed for caspase activity and propidium iodide (PI) staining using a carboxyfluorescein FLICA caspase-3&7 assay (Immunochemistry Technologies, Bloomington, Minn.), or, alternatively, for Annexin V labeling and PI staining by multiparametric flow cytometry. Furthermore, in accordance with the manufacturer's instructions, using a confocal laser scanning microscope, terminal deoxynucleotidyl transferase-dUTP nick end labeling (TUNEL) assay was conducted by MEBSTAIN Apoptosis Kit Direct (MBL).
In accordance with the method of Example 1, Annexin V assay and caspase assay were performed. […] For determination of caspase activation or Annexin V-positive expression, peptide-treated cultures were simultaneously analyzed for caspase activity and propidium iodide (PI) staining using a carboxyfluorescein FLICA caspase-3&7 assay (Immunochemistry Technologies, Bloomington, Minn.), or, alternatively, for Annexin V labeling and PI staining by multiparametric flow cytometry. The results are shown in FIG. 20A (Annexin V) and FIG. 20B (caspase activity)

Experiment [3] has as its system human breast cancer cell line MDA-MB-231. As to the kind of experiment: Antitumor effect in MDA-MB-231 bearing mouse models. The format is in vivo, athymic nude mice. To be noted: 1 mg/kg intravenously injected; from day 5.
The target of experiment [4] is T1, human recombinant IL4R protein (Homo sapiens, UniProt P24394).
T1 sequence (P24394 26-825): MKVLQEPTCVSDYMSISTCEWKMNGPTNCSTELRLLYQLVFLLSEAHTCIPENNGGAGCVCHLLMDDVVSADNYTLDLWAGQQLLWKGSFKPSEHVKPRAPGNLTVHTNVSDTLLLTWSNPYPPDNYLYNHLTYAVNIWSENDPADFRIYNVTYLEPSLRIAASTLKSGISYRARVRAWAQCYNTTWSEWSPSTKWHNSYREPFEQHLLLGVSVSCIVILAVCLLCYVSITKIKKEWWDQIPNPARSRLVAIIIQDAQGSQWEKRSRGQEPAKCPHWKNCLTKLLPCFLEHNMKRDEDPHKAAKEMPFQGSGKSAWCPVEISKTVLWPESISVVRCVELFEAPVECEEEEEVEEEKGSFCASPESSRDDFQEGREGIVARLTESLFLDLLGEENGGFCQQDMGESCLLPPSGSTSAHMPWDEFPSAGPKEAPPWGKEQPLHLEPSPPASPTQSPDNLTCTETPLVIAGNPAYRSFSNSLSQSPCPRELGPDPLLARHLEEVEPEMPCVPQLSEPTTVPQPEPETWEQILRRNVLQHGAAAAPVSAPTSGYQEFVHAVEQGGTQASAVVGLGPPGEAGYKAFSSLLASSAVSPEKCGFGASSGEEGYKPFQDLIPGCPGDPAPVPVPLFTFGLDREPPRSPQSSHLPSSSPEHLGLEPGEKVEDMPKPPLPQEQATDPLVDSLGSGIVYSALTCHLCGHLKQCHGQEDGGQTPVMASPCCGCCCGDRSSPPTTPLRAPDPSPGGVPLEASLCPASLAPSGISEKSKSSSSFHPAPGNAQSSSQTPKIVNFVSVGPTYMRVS
As to the kind of experiment: BIACORE binding to IL4R. (In SPR one partner is held on a chip, and binding of the other changes the refractive index at the surface.)

The next experiment deals with MDA-MB-231. Particulars: 48 h.
The next experiment relates to Panc-1. Particulars: 48 h.
In experiment [5] the test system is PE cell (pancreatic epidermal). Put plainly: Cell viability assay (WST-8). Particulars: 48 h. The class given is cell-based. The source says:
(§1) Correlation between IC50 values was observed.

The subject of a further experiment is T47D. Put plainly: Cell viability assay (WST-8). The format is cell-based, human. Particulars: 48 h.
Text: as §1

Another experiment has as its system CFPAC-1. To be noted: 48 h.
For a further experiment, the system named is HEK293T. The format is cell-based. To be noted: 48 h.
The next experiment deals with HuCCT-1. Particulars: 48 h.
Another experiment relates to SK-BR-3. Particulars: 48 h.
The mark [6] stands for this setting: listed as EB (H2R)-Lytic peptide.

Protocol for H322 lung cancer cells: Calcein, a soluble fluorescence molecule, was added to H322 lung cancer cells in a glass-bottomed dish at a final concentration of 2 μM. […] At 0 minute, two minutes, five minutes, 10 minutes and 20 minutes after addition of peptide, using Olympus FV1000 confocal laser scanning microscope (Olympus), confocal images were taken.

With YHWYGYTPQNVI [EB peptide], on EGFR, the Kd is 0.022 µM.

For the compound `CC[C@H](C)[C@H](NC(=O)[C@@H](NC(=O)[C@H](CC(N)=O)NC(=O)[C@H](CCC(N)=O)NC(=O)[C@@H]1CCCN1C(=O)[C@@H](NC(=O)[C@H](Cc1ccc(O)cc1)NC(=O)CNC(=O)[C@H](Cc1ccc(O)cc1)NC(=O)[C@H](Cc1c[nH]c2ccccc12)NC(=O)[C@H](CCCNC(=N)N)NC(=O)[C@@H](N)Cc1ccc(O)cc1)[C@@H](C)O)C(C)C)C(=O)NCC(=O)NCC(=O)NCC(=O)N[C@@H](CCCCN)C(=O)N[C@@H](CC(C)C)C(=O)N[C@H](CC(C)C)C(=O)N[C@@H](CC(C)C)C(=O)N[C@@H](CCCCN)C(=O)N[C@H](CC(C)C)C(=O)N[C@@H](CC(C)C)C(=O)N[C@H](CCCCN)C(=O)N[C@H](CCCCN)C(=O)N[C@@H](CC(C)C)C(=O)N[C@@H](CC(C)C)C(=O)N[C@@H](CCCCN)C(=O)N[C@H](CC(C)C)C(=O)N[C@@H](CC(C)C)C(=O)N[C@@H](CCCCN)C(=O)N[C@@H](CCCCN)C(=O)N[C@@H](CCCCN)C(=O)O` [EB(H2R)-lytic peptide] (H-YRWYGYTPQNVIGGGKL[dL]LK[dL]L[dK][dK]LLK[dL]LKKK-OH; N-terminus and C-terminus assumed), the IC50 (in general, the point on the concentration scale where inhibition reaches its midpoint) was greater than 20 µM in the experiment with HEK293; 1.9 µM in the experiment on BT-20 [1] (BT-20 cancer cells, 72 hours, mean (Table 2)); 8.4 µM in the experiment with U251 (U251 cancer cells, 72 hours, mean (Table 2)); 4.8 µM in the experiment with LNCaP (LNCaP cancer cells, 72 hours, mean (Table 2)); greater than 20 µM in the experiment with MRC-5; 6.6 µM with BxPC-3 (BxPC-3 cancer cells, 72 hours, mean (Table 2)). In addition, the IC50 in the experiment with H322 (H322 cancer cells, 72 hours, mean (Table 2)) was determined as 3.2 µM; with SU.86.86 (SU.86.86 cancer cells, 72 hours, mean (Table 2)), 7.4 µM. Moreover, the “IC50 Ratio EB-lytic peptide/EB(H2R)-lytic peptide” value in the experiment with BT-20 [1] (BT-20) turned out to be 3.4; in the experiment on U251 (U251) it was 1.4; with LNCaP (LNCaP) it was 2.1; in the experiment with BxPC-3 (BxPC-3) it was 1.8; with H322 (H322) it was 2.1; with SU.86.86 (SU.86.86), 1.6. For the same compound, in the experiment on H322 lung cancer cells (0 to 20 minutes), the “number of cells with the membrane disintegrated (green) over time” value is reported as “increases in shorter time”. Further, the “percentage of influx of medium to the cells over time (words)” value with H322 lung cancer cells (setting [6]) is recorded as “more rapid”; in the experiment on H322 lung cancer cells (listed as EB(H2R)-Lytic peptide), “more efficient”. Moreover, in the experiment with H322 (H322, 72 hours), the “cell-killing effect compared with wild-type EGFR-binding chimeric peptide” value was “enhanced more”. Besides, the “Annexin V-positive expression (words)” value with BT-20 [2] (setting [6]) is “induces Annexin V-positive expression more strongly”; with BT-20 [2] (listed as EB(H2R)-lytic) it was “induced Annexin V-positive expression more strongly”. Further, the “caspase 3,7 activation (words)” value was “induces caspase 3 & 7 activity more strongly” with BT-20 [2] (setting [6]) and “induced caspase 3,7 activation more strongly” in the experiment on BT-20 [2] (listed as EB(H2R)-lytic). Besides, in experiment [3], the “antitumor effect” value was “in vivo antitumor effect higher; also recorded: higher antitumor effect in vivo; also recorded: sufficient antitumor effect”.

“KQLIRFLKRLDRN (IL4R binding peptide) [IL4R-binding peptide]”: in experiment [4], the “binding affinity (BIACORE, words)” value was “binding affinity with human recombinant IL4R protein was observed”.

For `CC(C)C[C@H](NC(=O)[C@H](CCCCN)NC(=O)[C@@H](CC(C)C)NC(=O)[C@H](CC(C)C)NC(=O)[C@H](CCCCN)NC(=O)[C@H](CCCCN)NC(=O)[C@H](CC(C)C)NC(=O)[C@@H](CC(C)C)NC(=O)[C@@H](CCCCN)NC(=O)[C@H](CCCCN)NC(=O)[C@H](CC(C)C)NC(=O)[C@H](CC(C)C)NC(=O)[C@@H](CCCCN)NC(=O)[C@H](CC(C)C)NC(=O)[C@H](CC(C)C)NC(=O)CNC(=O)CNC(=O)[C@H](CCCNC(=N)N)NC(=O)[C@@H]1CCCN1C(=O)[C@H](Cc1ccc(O)cc1)NC(=O)[C@@H]1CCCN1C(=O)[C@@H](NC(=O)[C@H](CCCNC(=N)N)NC(=O)CN)C(C)C)C(=O)O` [Sema3A(aa371-377)-nLytic] (H-GRVPYPRGGLL[dK]LLK[dK][dL]LKKL[dL]KL-OH; N-terminus and C-terminus assumed), the IC50 with MDA-MB-231 was 8.1 µM; with BT-20 [1] (48 h) it was 11.4 µM; with Panc-1, 14.1 µM; in the experiment on BxPC-3 (48 h) it was 14.7 µM; in experiment [5], greater than 50 µM; with T47D, 3.7 µM. For the same compound, the IC50 was 9.2 µM with CFPAC-1; greater than 20 µM in the experiment on HEK293T; 8 µM with SU.86.86 (48 h); 7.9 µM in the experiment on HuCCT-1; 14.5 µM in the experiment with SK-BR-3.

For the compound `CC(C)C[C@H](NC(=O)[C@H](CCCCN)NC(=O)[C@@H](CC(C)C)NC(=O)[C@H](CC(C)C)NC(=O)[C@H](CCCCN)NC(=O)[C@H](CCCCN)NC(=O)[C@H](CC(C)C)NC(=O)[C@@H](CC(C)C)NC(=O)[C@@H](CCCCN)NC(=O)[C@H](CCCCN)NC(=O)[C@H](CC(C)C)NC(=O)[C@H](CC(C)C)NC(=O)[C@@H](CCCCN)NC(=O)[C@H](CC(C)C)NC(=O)[C@H](CC(C)C)NC(=O)CNC(=O)CNC(=O)[C@H](CCCNC(=N)N)NC(=O)[C@@H]1CCCN1C(=O)[C@H](Cc1ccc(O)cc1)NC(=O)[C@@H]1CCCN1C(=O)[C@@H](NC(=O)[C@H](CCCNC(=N)N)NC(=O)CNC(=O)[C@H](CCC(N)=O)NC(=O)[C@H](Cc1ccc(O)cc1)NC(=O)[C@@H]1CCCN1C(=O)[C@@H](NC(=O)[C@H](Cc1c[nH]c2ccccc12)NC(=O)[C@H](CCC(N)=O)NC(=O)[C@H](Cc1ccc(O)cc1)NC(=O)[C@@H](N)CC(N)=O)C(C)C)C(C)C)C(=O)O` [Sema3A(aa363-377)-nLytic] (H-NYQWVPYQGRVPYPRGGLL[dK]LLK[dK][dL]LKKL[dL]KL-OH; N-terminus and C-terminus assumed), the IC50 was 11.5 µM in the experiment with MDA-MB-231; 10.9 µM in the experiment on BT-20 [1] (48 h); 13.1 µM in the experiment with Panc-1; 12.5 µM in the experiment with BxPC-3 (48 h); greater than 50 µM in experiment [5]; 4.1 µM in the experiment on T47D. Also, the IC50 in the experiment with CFPAC-1 is 10.6 µM; in the experiment with HEK293T it was greater than 20 µM; with SU.86.86 (48 h), 7.9 µM; in the experiment on HuCCT-1, 13.6 µM; in the experiment on SK-BR-3, 8 µM.
